According to the supplement of paper PMC10307832:

How the values were obtained:
Assay in all cases: relative viability (nuclei count vs DMSO), 5 days (fraction); higher = more cells survive
[1] = compound: CC[C@@H]1C(=O)N(C)c2cnc(Nc3ccc(C(=O)NC4CCN(C)CC4)cc3OC)nc2N1C1CCCC1 [BI-2536] + CS(=O)(=O)CCNCc1ccc(-c2ccc3ncnc(Nc4ccc(OCc5cccc(F)c5)c(Cl)c4)c3c2)o1 [Lapatinib] (partner 2 µM)
In short: (§1)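 One day after seeding in 1536-well plates, lung cancer cell lines were dosed by pin tool. Dosing was either single-drug or a fixed anchor-drug dose plus five library-drug doses (not always all listed) in √10 steps. After 5 days, nuclei were stained in one fix-and-stain step and counted on 4× images, and relative viability is the nuclei count of treated wells over that of vehicle wells, given as the median of duplicate plates.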

[2] = compound: CC1CC(=O)N(C2=CN=C(N=C2N1C3CCCC3)NC4=C(C=C(C=C4)C(=O)NC5CCN(CC5)C)OC)C [NPK76-II-72-1] + CS(=O)(=O)N1CCN(Cc2cc3nc(-c4cccc5[nH]ncc45)nc(N4CCOCC4)c3s2)CC1 [Pictilisib] (partner 1 µM)
In short: as §1

[3] = compound: CC[C@@H]1C(=O)N(C)c2cnc(Nc3ccc(C(=O)NC4CCN(C)CC4)cc3OC)nc2N1C1CCCC1 [BI-2536] + Cc1nc(Nc2ncc(C(=O)Nc3c(C)cccc3Cl)s2)cc(N2CCN(CCO)CC2)n1 [Dasatinib] (partner 0.075 µM)
In short: as §1

[4] = compound: CC1CC(=O)N(C2=CN=C(N=C2N1C3CCCC3)NC4=C(C=C(C=C4)C(=O)NC5CCN(CC5)C)OC)C [NPK76-II-72-1] + COc1cccc2cc(-c3nc([C@H]4CC[C@H](C(=O)O)CC4)n4ncnc(N)c34)[nH]c12 [OSI-027] (partner 0.5 µM)
In short: as §1

Cell Line	relative viability ([1]; first compound 0.01 µM)	relative viability ([1]; first compound 0.03162 µM)	relative viability ([1]; first compound 0.1 µM)	relative viability ([1]; first compound 0.3162 µM)	relative viability ([1]; first compound 1 µM)	relative viability ([2]; first compound 0.01 µM)	relative viability ([2]; first compound 0.03162 µM)	relative viability ([2]; first compound 0.1 µM)	relative viability ([2]; first compound 0.3162 µM)	relative viability ([2]; first compound 1 µM)	relative viability ([3]; first compound 0.01 µM)	relative viability ([3]; first compound 0.03162 µM)	relative viability ([3]; first compound 0.1 µM)	relative viability ([3]; first compound 0.3162 µM)	relative viability ([3]; first compound 1 µM)	relative viability ([4]; first compound 0.01 µM)	relative viability ([4]; first compound 0.03162 µM)	relative viability ([4]; first compound 0.1 µM)	relative viability ([4]; first compound 0.3162 µM)	relative viability ([4]; first compound 1 µM)
NCI-H3122	0.943	1.07	0.296	0.258	0.228	0.625	0.618	0.601	0.652	0.63	0.813	0.878	0.158	0.0979	0.104	0.856	0.914	0.929	0.911	1.02
HCC-827	0.209	0.117	0.176	0.178	0.157	0.954	1.03	0.98	0.929	1.08	0.293	0.315	0.334	0.301	0.177	0.75	0.788	0.835	0.597	0.801
SK-LU-1	0.815	0.715	0.495	0.252	0.189	0.532	0.648	0.514	0.645	0.584	0.176	0.143	0.108	0.113	0.099	0.321	0.355	0.368	0.361	0.406
NCI-H1975	0.853	0.622	0.421	0.153	0.175	0.267	0.278	0.28	0.279	0.277	0.374	0.334	0.194	0.0936	0.0979	0.698	0.712	0.753	0.72	0.753
NCI-H1651	0.754	0.8	0.118	0.0889	0.0915	0.432	0.548	0.703	0.557	0.592	0.138	0.376	0.075	0.1	0.0509	0.676	0.743	0.677	0.652	0.799
LCLC-97TM1	0.919	0.737	0.114	0.13	0.117		0.251	0.168	0.173	0.207	0.943	0.837	0.725	0.155	0.12	0.479	0.67	0.407	0.45	0.577
NCI-H727	0.972	0.853	0.512	0.268	0.242	0.396	0.428	0.385	0.418	0.319	0.442	0.312	0.319	0.322	0.227	0.496	0.637	0.602	0.564	0.668
NCI-H1355	0.996	0.976	0.62	0.194	0.183	0.409	0.391	0.432	0.434	0.442	0.694	0.78	0.359	0.23	0.199	0.332	0.421	0.397	0.384	0.489
HOP-62	0.965	0.99	0.705	0.142	0.135	0.606	0.766	0.778	0.696	0.613	0.618	0.665	0.515	0.173	0.167	0.784	0.919	0.917	0.722	0.978
NCI-H2085	0.781	0.71	0.427	0.252	0.324	0.494	0.385	0.494	0.398	0.507	0.26	0.232	0.232	0.157	0.19	0.577	0.773	0.68	0.644	0.771
